Test results: patent EP4768479A1 (Hubei Bio-Pharmaceutical Industrial Technological Institute …, priority 2023, dated 2025)

Columns and labels:
CYP2C19 = molecular target: T1, CYP2C19 (Homo sapiens, UniProt P33261); test: CYP inhibition assay in mixed human liver microsomes; type: in vitro ADME; conditions: read-out: Inhibition Rate % CYP2C19
T1 construct: Mixed human liver microsomes; from tissue; host or cells: mixed (pooled) human liver microsomes
Procedure: (§1) The inhibitory effects of the compounds on six enzymes, i.e., CYP1A2, CYP2C9, CYP2C19, CYP2D6, CYP3A4 (midazolam), and CYP2B6, were evaluated at a concentration of 10 µM. Mixed human liver microsomes, which were previously stored in a -80°C refrigerator before use, were taken out and thawed in a water bath at 37°C before use, and placed on ice for further operation. 100 µL of microsome working solution was taken, and added with 2 µL of compound or positive inhibitor working solution. 2 µL of solvent was added to the solvent control. The mixture was pre-incubated in a water bath at 37°C for 10 minutes. After the preincubation, 98 µL of NADPH regeneration solution was added to all samples to initiate the reaction. Then, the samples were put back into the water bath and incubated for a period of time. The reaction was quenched with 200 µL of stop solution. The plate was centrifuged at 3,220 g for 10 minutes, 100 µL of supernatant was transferred, and 100 µL of water was added and mixed well to the assay plate for LC/MS/MS analysis. [Table 2] CYP450 Inhibition Results of Compounds

CYP2B6 = molecular target: T2, CYP2B6 (Homo sapiens, UniProt P20813); test: as above; type: in vitro ADME; conditions: read-out: Inhibition Rate % CYP2B6
T2 construct: Mixed human liver microsomes; from tissue; host or cells: mixed (pooled) human liver microsomes
T2 sequence (P20813 1-491): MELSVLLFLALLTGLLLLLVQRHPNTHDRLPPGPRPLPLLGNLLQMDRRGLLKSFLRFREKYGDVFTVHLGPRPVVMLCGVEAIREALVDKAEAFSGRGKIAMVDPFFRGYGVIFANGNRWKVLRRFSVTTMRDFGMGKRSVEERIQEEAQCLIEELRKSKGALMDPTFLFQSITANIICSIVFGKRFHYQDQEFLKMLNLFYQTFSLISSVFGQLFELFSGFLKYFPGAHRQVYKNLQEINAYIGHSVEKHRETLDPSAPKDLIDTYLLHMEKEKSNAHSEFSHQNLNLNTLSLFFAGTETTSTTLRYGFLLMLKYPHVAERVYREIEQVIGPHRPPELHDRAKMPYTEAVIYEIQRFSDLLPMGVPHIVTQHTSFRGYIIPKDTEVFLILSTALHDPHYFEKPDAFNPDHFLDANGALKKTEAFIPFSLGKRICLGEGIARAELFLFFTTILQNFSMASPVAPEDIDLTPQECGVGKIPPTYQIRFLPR
Procedure: as §1

CYP2C9 = molecular target: T3, CYP2C9 (Homo sapiens, UniProt P11712); test: as above; type: in vitro ADME; conditions: read-out: Inhibition Rate % CYP2C9
T3 construct: Mixed human liver microsomes; from tissue; host or cells: mixed (pooled) human liver microsomes
T3 sequence (P11712 whole entry): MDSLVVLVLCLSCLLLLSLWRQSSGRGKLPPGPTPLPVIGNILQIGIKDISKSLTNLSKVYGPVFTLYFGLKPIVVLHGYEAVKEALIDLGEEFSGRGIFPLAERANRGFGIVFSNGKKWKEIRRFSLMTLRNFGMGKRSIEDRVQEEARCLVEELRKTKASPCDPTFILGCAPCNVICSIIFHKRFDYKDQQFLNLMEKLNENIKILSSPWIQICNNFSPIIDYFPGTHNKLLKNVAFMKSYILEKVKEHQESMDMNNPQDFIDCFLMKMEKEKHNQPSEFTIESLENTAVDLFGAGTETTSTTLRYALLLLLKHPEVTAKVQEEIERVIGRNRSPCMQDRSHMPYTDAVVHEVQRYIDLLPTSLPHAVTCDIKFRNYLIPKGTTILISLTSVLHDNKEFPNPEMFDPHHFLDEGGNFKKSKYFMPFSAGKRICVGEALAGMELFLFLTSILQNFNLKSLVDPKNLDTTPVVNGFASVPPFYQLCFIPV
Procedure: as §1

CYP3A4 = molecular target: T4, CYP3A4 (Homo sapiens, UniProt P08684); test: as above; type: in vitro ADME; conditions: probe midazolam, read-out: Inhibition Rate % CYP3A4 (midazolam)
T4 construct: Mixed human liver microsomes; from tissue; host or cells: mixed (pooled) human liver microsomes
T4 sequence (P08684 whole entry): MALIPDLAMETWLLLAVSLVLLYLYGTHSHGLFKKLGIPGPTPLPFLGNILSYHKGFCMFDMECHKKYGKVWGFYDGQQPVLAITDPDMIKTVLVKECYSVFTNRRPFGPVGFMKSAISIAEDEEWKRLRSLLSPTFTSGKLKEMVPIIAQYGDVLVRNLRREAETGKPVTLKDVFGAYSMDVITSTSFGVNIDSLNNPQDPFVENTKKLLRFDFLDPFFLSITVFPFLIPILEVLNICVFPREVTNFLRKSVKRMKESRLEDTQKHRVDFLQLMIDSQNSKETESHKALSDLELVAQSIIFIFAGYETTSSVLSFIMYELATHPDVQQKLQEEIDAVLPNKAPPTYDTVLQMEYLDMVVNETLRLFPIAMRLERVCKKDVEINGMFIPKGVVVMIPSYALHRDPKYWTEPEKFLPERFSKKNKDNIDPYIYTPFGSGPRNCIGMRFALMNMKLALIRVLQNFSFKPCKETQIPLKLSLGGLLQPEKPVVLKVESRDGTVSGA
Procedure: as §1

CYP1A2 = molecular target: T5, CYP1A2 (Homo sapiens, UniProt P05177); test: as above; type: in vitro ADME; conditions: read-out: Inhibition Rate % CYP1A2
T5 construct: Mixed human liver microsomes; from tissue; host or cells: mixed (pooled) human liver microsomes
T5 sequence (P05177 1-516): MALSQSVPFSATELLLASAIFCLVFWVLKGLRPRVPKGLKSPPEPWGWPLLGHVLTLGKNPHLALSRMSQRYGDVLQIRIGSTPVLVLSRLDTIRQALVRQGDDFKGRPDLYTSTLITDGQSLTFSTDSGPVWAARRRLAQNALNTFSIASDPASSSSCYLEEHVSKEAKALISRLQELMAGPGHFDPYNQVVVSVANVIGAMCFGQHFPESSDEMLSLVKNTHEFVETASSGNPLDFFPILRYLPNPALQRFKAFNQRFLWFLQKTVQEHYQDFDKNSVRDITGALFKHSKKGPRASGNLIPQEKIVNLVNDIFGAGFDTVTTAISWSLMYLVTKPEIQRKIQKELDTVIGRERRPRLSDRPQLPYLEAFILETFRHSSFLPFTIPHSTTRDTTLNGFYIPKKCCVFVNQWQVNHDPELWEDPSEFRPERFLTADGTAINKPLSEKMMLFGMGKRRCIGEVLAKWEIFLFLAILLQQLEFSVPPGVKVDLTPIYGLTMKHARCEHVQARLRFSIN
Procedure: as §1

CYP2D6 = molecular target: T6, CYP2D6 (Homo sapiens, UniProt P10635); test: as above; type: in vitro ADME; conditions: read-out: Inhibition Rate % CYP2D6
T6 construct: Mixed human liver microsomes; from tissue; host or cells: mixed (pooled) human liver microsomes
T6 sequence (P10635 whole entry): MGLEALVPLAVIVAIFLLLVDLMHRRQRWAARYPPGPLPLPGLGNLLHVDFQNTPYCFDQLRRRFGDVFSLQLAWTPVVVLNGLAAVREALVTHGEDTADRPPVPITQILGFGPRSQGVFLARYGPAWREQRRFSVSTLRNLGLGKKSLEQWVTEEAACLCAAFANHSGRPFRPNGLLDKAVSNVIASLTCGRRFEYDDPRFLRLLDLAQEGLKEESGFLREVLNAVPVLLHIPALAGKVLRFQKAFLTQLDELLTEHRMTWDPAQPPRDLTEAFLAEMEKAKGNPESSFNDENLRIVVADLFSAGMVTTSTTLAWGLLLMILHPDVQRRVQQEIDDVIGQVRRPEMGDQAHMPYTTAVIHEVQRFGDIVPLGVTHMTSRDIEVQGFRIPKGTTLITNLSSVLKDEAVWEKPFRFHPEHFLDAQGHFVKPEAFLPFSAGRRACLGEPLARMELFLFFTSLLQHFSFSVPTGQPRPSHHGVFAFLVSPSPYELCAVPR
Procedure: as §1

[1] = Pharmacokinetic study following single oral gavage administration to cynomolgus monkeys; type: in vivo; conditions: cynomolgus monkey, plasma, 5 mg/kg; Monkey PK PO (5 mpk)
Procedure: The compounds were dissolved in a vehicle consisting of 5% DMSO+10% Solutol+85% Saline to a concentration of 1 mg/mL, and administered at a dose of 5 mpk. The animals were weighed before the administration, and the dosing volume was calculated based on the body weight. The compounds were administered to the animals via oral gavage. Blood samples were collected via a femoral vein or other suitable methods at time points of 0.083 hours, 0.25 hours, 0.5 hours, 1 hour, 2 hours, 4 hours, 6 hours, 8 hours, and 24 hours. Approximately 1 mL of each sample was collected at each time point, anticoagulated with sodium heparin, and placed on ice immediately after the collection. After the blood samples were collected, they were placed on ice and centrifuged within 1 hour to separate plasma (centrifugation conditions: 2,200g, 10 minutes, and 2°C to 8°C). The plasma samples were stored in a -80°C refrigerator until analysis.
The bioanalytical method and sample analysis were performed by the Analytical Laboratory of Medicilon Inc. (Shanghai, China). Intra-day accuracy of quality control samples was evaluated concurrently with the sample analysis, requiring that accuracy of more than 66.7% of the quality control samples fell within the range of 80% to 120%. [Table 5] Pharmacokinetics of Compounds in Monkeys

T1 sequence (P33261 whole entry): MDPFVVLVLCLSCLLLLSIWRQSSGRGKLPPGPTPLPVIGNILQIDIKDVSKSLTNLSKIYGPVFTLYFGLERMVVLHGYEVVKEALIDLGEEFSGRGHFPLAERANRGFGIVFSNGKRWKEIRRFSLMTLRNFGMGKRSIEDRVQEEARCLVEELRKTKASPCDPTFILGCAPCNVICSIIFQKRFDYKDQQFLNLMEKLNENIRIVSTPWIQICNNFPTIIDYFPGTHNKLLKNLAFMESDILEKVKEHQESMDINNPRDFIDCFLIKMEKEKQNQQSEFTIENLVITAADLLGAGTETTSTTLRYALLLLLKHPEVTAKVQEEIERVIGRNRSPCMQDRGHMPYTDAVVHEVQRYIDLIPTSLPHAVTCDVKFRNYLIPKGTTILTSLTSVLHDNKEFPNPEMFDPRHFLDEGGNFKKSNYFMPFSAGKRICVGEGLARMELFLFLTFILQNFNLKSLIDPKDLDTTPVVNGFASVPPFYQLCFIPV

SMILES | inhibition at 10 µM (CYP2C19) [%] | inhibition at 10 µM (CYP2B6) [%] | inhibition at 10 µM (CYP2C9) [%] | inhibition at 10 µM (CYP3A4) [%] | inhibition at 10 µM (CYP1A2) [%] | inhibition at 10 µM (CYP2D6) [%] | AUC(0-t) [1] [ng·h/mL] | Cmax [1] [ng/mL]
Cc1c(CC(C)C)sc(S(=O)(=O)Nc2ncccn2)c1-c1ccc(Cn2ccnc2Cl)cc1 [Compound I-23, 3-(4-((2-chloro-1H-imidazol-1-yl)methyl)phenyl)-5-isobutyl-4-methyl-N-(pyrimidin-2-yl)thiophene-2-sulfonamide] | 15.4 | 7.6 | 20.5 | 0 | 8.3 | 0 | – | –
Cc1c(CC(C)C)sc(S(=O)(=O)NC(=O)OCCO)c1-c1ccc(Cn2ccnc2C(F)(F)F)cc1 [Compound I-13, 2-hydroxyethyl ((5-isobutyl-4-methyl-3-(4-((2-(trifluoromethyl)-1H-imidazol-1-yl)methyl)phenyl)thiophen-2-yl)sulfonyl)carbamate] | 17.3 | 11.3 | 12.2 | 9.6 | 3.5 | 0 | – | –
Cc1c(CC(C)C)sc(S(=O)(=O)NC(=O)OCC(C)(C)O)c1-c1ccc(Cn2ccnc2C(F)(F)F)cc1 [Compound I-10, 2-hydroxy-2-methylpropyl ((5-isobutyl-4-methyl-3-(4-((2-(trifluoromethyl)-1H-imidazol-1-yl)methyl)phenyl)thiophen-2-yl)sulfonyl)carbamate] | 7.4 | 13.7 | 5.3 | 0 | 0 | 0 | 5570 | 3560
COC(=O)NS(=O)(=O)c1sc(CC(C)C)c(C)c1-c1ccc(Cn2ccnc2C(C)(C)O)cc1 [Compound I-19, Methyl ((3-(4-((2-(2-hydroxypropan-2-yl)-1H-imidazol-1-yl)methyl)phenyl)-5-isobutyl-4-methylthiophen-2-yl)sulfonyl)carbamate] | 0 | 3.8 | 0 | 7.6 | 0 | 0 | 6820 | 4030
COC(=O)NS(=O)(=O)c1sc(CC(C)C)c(C)c1-c1ccc(Cn2ccnc2C(F)(F)F)cc1 [Compound I-9, Methyl ((5-isobutyl-4-methyl-3-(4-((2-(trifluoromethyl)-1H-imidazol-1-yl)methyl)phenyl)thiophen-2-yl)sulfonyl)carbamate] | 29.8 | 22.2 | 18.6 | 0 | 0 | 0 | 7790 | 5310
COC(=O)NS(=O)(=O)c1sc(CC(C)C)c(C)c1-c1ccc(Cn2ccnc2Cl)c(F)c1 [Compound I-14, Methyl ((3-(4-((2-chloro-1H-imidazol-1-yl)methyl)-3-fluorophenyl)-5-isobutyl-4-methylthiophen-2-yl)sulfonyl)carbamate] | 11.9 | 4.3 | 24.8 | 14 | 5.6 | 2.1 | 7350 | 5040
CCCCOC(=O)NS(=O)(=O)c1sc(CC(C)C)cc1-c1ccc(Cn2ccnc2)cc1 [Control Compound I, reference compound] | 100 | 63.2 | 100 | 92.6 | 95.4 | 86.5 | 4920 | 1320
